Measured values from ChEMBL document CHEMBL3885861, “Open TG-GATES”.

Species: Rattus norvegicus
Test: Open TG-GATES - Regimen: Daily Repeat
Assay type: toxicity, organism-based, Sprague-Dawley
Design: regimen Daily Repeat, gender Male, age 6 weeks
Details: in vivo, po, route gavage; for APTT / Bas / Eos / Fbg / Hb / Ht / Lym / MCH / MCHC / MCV / Mono / Neu / PT / Plat / RBC / Ret / WBC: tissue Blood; for KIDNEY_L / KIDNEY_R / KIDNEY_TOTAL: tissue Kidney; for LIVER: tissue Liver; for A/G / ALP / ALT / AST / BUN / CRE / Ca / Cl / DBIL / GLC / IP / K / LDH / Na / PL / RALB / TBIL / TC / TG / TP / gamma-GTP: tissue Plasma
[1] = 15 mg/kg, 72 h, dose level Middle, time 3 day
[2] = 15 mg/kg, […], dose level Middle, time 7 day
[3] = 15 mg/kg, […], dose level Middle, time 14 day
[4] = 15 mg/kg, […], dose level Middle, time 28 day
[5] = 45 mg/kg, 72 h, dose level High, time 3 day
[6] = 45 mg/kg, […], dose level High, time 7 day
[7] = 45 mg/kg, […], dose level High, time 14 day
[8] = 45 mg/kg, […], dose level High, time 28 day

## CC(=N)S [THIOACETAMIDE]
[1]
  TERMINAL_BW: 220.4 g
  APTT: 16.6 s
  Bas: 0%
  Eos: 1%
  Fbg: 254.2 mg/dL
  Hb: 14 g/dL
  Ht: 42.5%
  Lym: 84%
  MCH: 20.9 pg
  MCHC: 33.1%
  MCV: 63.2 fL
  Mono: 5.2%
  Neu: 9.6%
  PT: 12.2 s
  Plat: 113 x10_4/uL
  RBC: 672.4 x10_4/ul
  Ret: 5.5%
  WBC: 167.1 x10_2/uL
  KIDNEY_L: 1 g
  KIDNEY_R: 1 g
  KIDNEY_TOTAL: 1.9 g
  LIVER: 11.1 g
  A/G: 2.1
  ALP: 896 IU/L
  ALT: 29.2 IU/L
  AST: 57.2 IU/L
  BUN: 17 mg/dL
  CRE: 0.5 mg/dL
  Ca: 10.5 mg/dL
  Cl: 105.8 meq/L
  DBIL: 0.02 mg/dL
  GLC: 176.2 mg/dL
  IP: 7.5 mg/dL
  K: 5 meq/L
  LDH: 92.8 IU/L
  Na: 137.6 meq/L
  PL: 159.4 mg/dL
  RALB: 3.9 g/dL
  TBIL: 0.3 mg/dL
  TC: 76.4 mg/dL
  TG: 148 mg/dL
  TP: 5.8 g/dL
  gamma-GTP: 2.4 IU/L
[2]
  TERMINAL_BW: 248.4 g
  APTT: 16.4 s
  Bas: 0%
  Eos: 1%
  Fbg: 247.2 mg/dL
  Hb: 13.9 g/dL
  Ht: 42.1%
  Lym: 82.8%
  MCH: 20.8 pg
  MCHC: 33%
  MCV: 63 fL
  Mono: 5.4%
  Neu: 11.2%
  PT: 12.7 s
  Plat: 108.4 x10_4/uL
  RBC: 668.4 x10_4/ul
  Ret: 4.5%
  WBC: 170.4 x10_2/uL
  KIDNEY_L: 1.1 g
  KIDNEY_R: 1.1 g
  KIDNEY_TOTAL: 2.2 g
  LIVER: 12.8 g
  A/G: 2
  ALP: 926.6 IU/L
  ALT: 29.4 IU/L
  AST: 54.2 IU/L
  BUN: 19 mg/dL
  CRE: 0.6 mg/dL
  Ca: 10.5 mg/dL
  Cl: 105.6 meq/L
  DBIL: 0.016 mg/dL
  GLC: 172.4 mg/dL
  IP: 7.9 mg/dL
  K: 5.1 meq/L
  LDH: 97.4 IU/L
  Na: 136.2 meq/L
  PL: 152.6 mg/dL
  RALB: 4 g/dL
  TBIL: 0.3 mg/dL
  TC: 75.6 mg/dL
  TG: 114.8 mg/dL
  TP: 5.9 g/dL
  gamma-GTP: 2.4 IU/L
[3]
  TERMINAL_BW: 276.3 g
  APTT: 16.4 s
  Bas: 0%
  Eos: 1%
  Fbg: 239.8 mg/dL
  Hb: 14.7 g/dL
  Ht: 44%
  Lym: 79.8%
  MCH: 19.7 pg
  MCHC: 33.3%
  MCV: 59.3 fL
  Mono: 7.6%
  Neu: 11.8%
  PT: 13 s
  Plat: 111.2 x10_4/uL
  RBC: 743.4 x10_4/ul
  Ret: 3.5%
  WBC: 202.6 x10_2/uL
  KIDNEY_L: 1.2 g
  KIDNEY_R: 1.2 g
  KIDNEY_TOTAL: 2.3 g
  LIVER: 12.7 g
  A/G: 2.1
  ALP: 760.2 IU/L
  ALT: 26.2 IU/L
  AST: 47.2 IU/L
  BUN: 20.4 mg/dL
  CRE: 0.6 mg/dL
  Ca: 10.3 mg/dL
  Cl: 104.8 meq/L
  DBIL: 0.05 mg/dL
  GLC: 173.8 mg/dL
  IP: 7.3 mg/dL
  K: 4.8 meq/L
  LDH: 90.2 IU/L
  Na: 134.2 meq/L
  PL: 127 mg/dL
  RALB: 3.9 g/dL
  TBIL: 0.3 mg/dL
  TC: 59.4 mg/dL
  TG: 87.4 mg/dL
  TP: 5.8 g/dL
  gamma-GTP: 1.6 IU/L
[4]
  TERMINAL_BW: 324.2 g
  APTT: 16.6 s
  Bas: 0%
  Eos: 1%
  Fbg: 240.2 mg/dL
  Hb: 15.1 g/dL
  Ht: 44.7%
  Lym: 75.4%
  MCH: 19 pg
  MCHC: 33.9%
  MCV: 56.1 fL
  Mono: 8.6%
  Neu: 14.8%
  PT: 11.9 s
  Plat: 116.1 x10_4/uL
  RBC: 798.6 x10_4/ul
  Ret: 3.2%
  WBC: 149.2 x10_2/uL
  KIDNEY_L: 1.2 g
  KIDNEY_R: 1.2 g
  KIDNEY_TOTAL: 2.4 g
  LIVER: 14.1 g
  A/G: 2
  ALP: 660.6 IU/L
  ALT: 29.8 IU/L
  AST: 35.4 IU/L
  BUN: 20.4 mg/dL
  CRE: 0.6 mg/dL
  Ca: 10 mg/dL
  Cl: 105.4 meq/L
  DBIL: 0.014 mg/dL
  GLC: 164.8 mg/dL
  IP: 6.3 mg/dL
  K: 4.5 meq/L
  LDH: 114.6 IU/L
  Na: 134 meq/L
  PL: 125.4 mg/dL
  RALB: 3.9 g/dL
  TBIL: 0.2 mg/dL
  TC: 60.4 mg/dL
  TG: 62.4 mg/dL
  TP: 5.8 g/dL
  gamma-GTP: 1.6 IU/L
[5]
  TERMINAL_BW: 211.8 g
  APTT: 17.5 s
  Bas: 0%
  Eos: 1.4%
  Fbg: 296 mg/dL
  Hb: 14.4 g/dL
  Ht: 44%
  Lym: 75.4%
  MCH: 20.3 pg
  MCHC: 32.8%
  MCV: 62.1 fL
  Mono: 9.2%
  Neu: 14%
  PT: 12.4 s
  Plat: 112.5 x10_4/uL
  RBC: 711.2 x10_4/ul
  Ret: 4.8%
  WBC: 144.4 x10_2/uL
  KIDNEY_L: 1 g
  KIDNEY_R: 1.1 g
  KIDNEY_TOTAL: 2.1 g
  LIVER: 12.3 g
  A/G: 1.8
  ALP: 923.2 IU/L
  ALT: 47.8 IU/L
  AST: 179.6 IU/L
  BUN: 16.4 mg/dL
  CRE: 0.6 mg/dL
  Ca: 10.9 mg/dL
  Cl: 104.2 meq/L
  DBIL: 0.086 mg/dL
  GLC: 174.8 mg/dL
  IP: 8.1 mg/dL
  K: 5.1 meq/L
  LDH: 338.2 IU/L
  Na: 136 meq/L
  PL: 189.8 mg/dL
  RALB: 3.7 g/dL
  TBIL: 0.3 mg/dL
  TC: 102 mg/dL
  TG: 115.4 mg/dL
  TP: 5.8 g/dL
  gamma-GTP: 2.2 IU/L
[6]
  TERMINAL_BW: 217.5 g
  APTT: 16.5 s
  Bas: 0%
  Eos: 1%
  Fbg: 236 mg/dL
  Hb: 14.7 g/dL
  Ht: 44%
  Lym: 81%
  MCH: 20.1 pg
  MCHC: 33.5%
  MCV: 60 fL
  Mono: 5.6%
  Neu: 12.6%
  PT: 14.3 s
  Plat: 159.2 x10_4/uL
  RBC: 734.2 x10_4/ul
  Ret: 2%
  WBC: 180.4 x10_2/uL
  KIDNEY_L: 1 g
  KIDNEY_R: 1 g
  KIDNEY_TOTAL: 2 g
  LIVER: 11.1 g
  A/G: 1.9
  ALP: 946.4 IU/L
  ALT: 23.4 IU/L
  AST: 47 IU/L
  BUN: 18.4 mg/dL
  CRE: 0.5 mg/dL
  Ca: 10.4 mg/dL
  Cl: 105.4 meq/L
  DBIL: 0.026 mg/dL
  GLC: 164.2 mg/dL
  IP: 7.3 mg/dL
  K: 4.8 meq/L
  LDH: 192.8 IU/L
  Na: 136 meq/L
  PL: 137 mg/dL
  RALB: 3.6 g/dL
  TBIL: 0.2 mg/dL
  TC: 69.8 mg/dL
  TG: 57.2 mg/dL
  TP: 5.5 g/dL
  gamma-GTP: 2 IU/L
[7]
  TERMINAL_BW: 249.4 g
  APTT: 16.7 s
  Bas: 0%
  Eos: 1%
  Fbg: 228.4 mg/dL
  Hb: 14.7 g/dL
  Ht: 43.7%
  Lym: 77.8%
  MCH: 19.7 pg
  MCHC: 33.5%
  MCV: 58.9 fL
  Mono: 5.4%
  Neu: 16.2%
  PT: 14.4 s
  Plat: 123.1 x10_4/uL
  RBC: 742.6 x10_4/ul
  Ret: 2.7%
  WBC: 176.2 x10_2/uL
  KIDNEY_L: 1.2 g
  KIDNEY_R: 1.2 g
  KIDNEY_TOTAL: 2.3 g
  LIVER: 12.4 g
  A/G: 2.3
  ALP: 1052 IU/L
  ALT: 26 IU/L
  AST: 67 IU/L
  BUN: 18.6 mg/dL
  CRE: 0.6 mg/dL
  Ca: 10.2 mg/dL
  Cl: 105 meq/L
  DBIL: 0.08 mg/dL
  GLC: 165.8 mg/dL
  IP: 7.3 mg/dL
  K: 4.3 meq/L
  LDH: 161 IU/L
  Na: 135 meq/L
  PL: 154 mg/dL
  RALB: 3.7 g/dL
  TBIL: 0.3 mg/dL
  TC: 74.4 mg/dL
  TG: 83 mg/dL
  TP: 5.3 g/dL
  gamma-GTP: 2.4 IU/L
[8]
  TERMINAL_BW: 277.2 g
  APTT: 17.6 s
  Bas: 0%
  Eos: 0.6%
  Fbg: 218 mg/dL
  Hb: 15.6 g/dL
  Ht: 45.4%
  Lym: 71.6%
  MCH: 18.8 pg
  MCHC: 34.5%
  MCV: 54.3 fL
  Mono: 6.6%
  Neu: 21%
  PT: 14 s
  Plat: 110.9 x10_4/uL
  RBC: 835.6 x10_4/ul
  Ret: 2.6%
  WBC: 183.8 x10_2/uL
  KIDNEY_L: 1.2 g
  KIDNEY_R: 1.2 g
  KIDNEY_TOTAL: 2.4 g
  LIVER: 14.3 g
  A/G: 1.9
  ALP: 1032 IU/L
  ALT: 31.2 IU/L
  AST: 76 IU/L
  BUN: 20.8 mg/dL
  CRE: 0.6 mg/dL
  Ca: 9.9 mg/dL
  Cl: 106 meq/L
  DBIL: 0.2 mg/dL
  GLC: 148.8 mg/dL
  IP: 6.3 mg/dL
  K: 4.4 meq/L
  LDH: 195.4 IU/L
  Na: 134 meq/L
  PL: 138.4 mg/dL
  RALB: 3.5 g/dL
  TBIL: 0.3 mg/dL
  TC: 61.4 mg/dL
  TG: 20.8 mg/dL
  TP: 5.4 g/dL
  gamma-GTP: 6 IU/L
